# Measured values: patent US6706750B1, “Indole derivatives process for their preparation, pharmaceutical compositions containing them and their medicinal application” (priority 1999, dated 2004)
# Structures can show the parent of a compound that is named as a salt. Where two headings read alike, the source gives them in different places.
# Columns and labels:
# h5-HT2A receptors = molecular target: T1, h5-HT2A receptors (Homo sapiens, UniProt P28223); test: Functional activity, FLIPR calcium assay in CHO cells expressing h5-HT2A; type: cell-based; details: for EC50: FLIPR, CHO cells; for Emax: CHO, read-out: h5-HT2A Relative Efficacy
# T1 construct: expressed in transfected cells; host or cells: CHO cells
# T1 sequence (P28223 whole entry): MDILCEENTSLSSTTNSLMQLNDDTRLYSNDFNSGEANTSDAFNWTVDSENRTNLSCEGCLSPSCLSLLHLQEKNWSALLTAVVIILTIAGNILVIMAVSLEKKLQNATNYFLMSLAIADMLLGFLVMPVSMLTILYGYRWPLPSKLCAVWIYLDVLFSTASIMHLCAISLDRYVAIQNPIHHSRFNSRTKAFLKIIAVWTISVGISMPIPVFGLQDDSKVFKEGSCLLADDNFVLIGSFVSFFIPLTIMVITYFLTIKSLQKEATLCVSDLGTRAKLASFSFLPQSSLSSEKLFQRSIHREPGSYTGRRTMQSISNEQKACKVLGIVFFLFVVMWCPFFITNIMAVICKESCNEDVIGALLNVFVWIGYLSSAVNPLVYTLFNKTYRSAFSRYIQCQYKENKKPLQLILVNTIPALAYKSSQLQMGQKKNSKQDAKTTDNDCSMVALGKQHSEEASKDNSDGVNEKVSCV
# Experimental: (§1) The functional activity of compounds of formula (I) was assayed using a Fluorimetric Imaging Plate reader (FLIPR) in the following manner.
# (§2) CHO cells expressing either the h5-HT2C or h5-HT2A receptors were counted and plated into standard 96 well microtitre plates before the day of testing to give a confluent monolayer. The following day the cells were dye loaded with the calcium sensitive dye Fluo 3-AM by incubation with serum free culture maintenance media containing pluronic acid and Fluo 3-AM dissolved in DMSO at 37° C. in a CO2 incubator at 95% humidity for approximately 90 minutes. Unincorporated dye was removed by washing with Hanks balanced salt solution containing 20 mM HEPES and 2.5 mM probenecid (the assay buffer) using an automated cell washer to leave a total volume of 100 μL/well.
# (§3) The drug (dissolved in 50 μL of assay buffer) was added at a rate of 70 μL/sec to each well of the FLIPR 96 well plate during fluorescence measurements. The measurements are taken at 1 sec intervals and the maximum fluorescent signal was measured (approx 10-15 secs after drug addition) and compared with the response produced by 10 μM 5-HT (defined as 100%) to which it is expressed as a percentage response (relative efficacy). Dose response curves were constructed using Graphpad Prism (Graph Software Inc.).
# h5-HT2C = molecular target: T2, h5-HT2C (Homo sapiens, UniProt P28335); test: Functional activity, FLIPR calcium assay in CHO cells expressing h5-HT2C; type: cell-based; details: for EC50: FLIPR, CHO cells; for Emax: CHO, read-out: h5-HT2C Relative Efficacy
# T2 construct: expressed in transfected cells; host or cells: CHO cells
# T2 sequence (P28335 33-458): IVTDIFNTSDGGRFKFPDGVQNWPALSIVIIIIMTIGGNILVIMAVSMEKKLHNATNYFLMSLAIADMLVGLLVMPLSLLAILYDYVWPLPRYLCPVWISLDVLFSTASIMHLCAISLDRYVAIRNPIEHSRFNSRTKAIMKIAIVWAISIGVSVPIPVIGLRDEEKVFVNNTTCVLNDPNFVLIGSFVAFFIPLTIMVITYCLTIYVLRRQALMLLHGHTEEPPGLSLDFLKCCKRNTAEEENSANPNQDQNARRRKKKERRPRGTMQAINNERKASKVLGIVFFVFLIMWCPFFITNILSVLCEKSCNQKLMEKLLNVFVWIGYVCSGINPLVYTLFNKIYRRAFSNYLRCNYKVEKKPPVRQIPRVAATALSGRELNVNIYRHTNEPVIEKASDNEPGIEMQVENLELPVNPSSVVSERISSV
# Experimental: as §1, §2, §3
# 5-HT2C receptor = molecular target: T3, 5-HT2C receptor (Homo sapiens, UniProt P28335); test: Radioligand binding to the 5-HT2C receptor ([3H]-5-HT, CHO cell line)
# T3 construct: expressed in transfected cells; host or cells: CHO cell line
# T3 sequence (P28335 33-458): T2 sequence (P28335 33-458)
# Experimental: (§4) 1. Binding to Serotonin Receptors
# (§5) The binding of compounds of formula (I) to serotonin receptors was determined in vitro by standard methods. The preparations were investigated in accordance with the assays given hereinafter.
# Method (a): For the binding to the 5-HT2C receptor the 5-HT2C receptors were radiolabelled with [^3H]-5-HT. The affinity of the compounds for 5-HT2C receptors in a CHO cell line was determined according to the procedure of D. Hoyer, G. Engel and H.O. Kalkman, European J. Pharmacol., 1985, 118, 13-23.
# 5-HT2A receptor = molecular target: T4, 5-HT2A receptor (Homo sapiens, UniProt P28223); test: Radioligand binding to the 5-HT2A receptor ([125I]-DOI, CHO cell line)
# T4 construct: expressed in transfected cells; host or cells: CHO cell line
# T4 sequence (P28223 whole entry): as the sequence (P28223 whole entry) above
# Experimental: as §4, §5
# Method (c): For the binding to the 5-HT2A receptor the 5-HT2A receptors were radiolabelled with [^125I]-DOI. The affinity of the compounds for 5-HT2A receptors in a CHO cell line was determined according to the procedure of D. J. McKenna and S. J. Peroutka, J. Neurosci., 1989, 9/10, 3482-90.
# human 5-HT2B receptors = molecular target: T5, human 5-HT2B receptors (Homo sapiens, UniProt P41595); test: Radioligand binding to the 5-HT2B receptor ([3H]-5-HT, CHO cell line)
# T5 construct: expressed in transfected cells; host or cells: CHO cell line
# T5 sequence (P41595 whole entry): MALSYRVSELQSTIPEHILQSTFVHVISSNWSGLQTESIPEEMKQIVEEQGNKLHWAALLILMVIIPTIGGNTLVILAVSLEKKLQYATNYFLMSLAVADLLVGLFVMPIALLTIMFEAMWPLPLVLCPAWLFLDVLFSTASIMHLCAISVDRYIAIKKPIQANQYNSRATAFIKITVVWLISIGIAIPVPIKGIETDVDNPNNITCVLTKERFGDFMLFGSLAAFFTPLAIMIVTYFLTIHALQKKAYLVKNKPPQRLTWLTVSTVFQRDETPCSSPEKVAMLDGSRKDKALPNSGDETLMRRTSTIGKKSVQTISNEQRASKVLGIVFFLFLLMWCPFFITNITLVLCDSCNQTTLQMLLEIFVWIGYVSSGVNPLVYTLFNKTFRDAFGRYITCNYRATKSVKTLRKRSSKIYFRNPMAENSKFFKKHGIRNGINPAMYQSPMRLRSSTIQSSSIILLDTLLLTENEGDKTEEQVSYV
# Experimental: as §4, §5
# Method (b): For the binding to the 5-HT2B receptor the 5-HT2B receptors were radiolabelled with [^3H]-5-HT. The affinity of the compounds for human 5-HT2B receptors in a CHO cell line was determined according to the procedure of K. Schmuck, C. Ullmer, P. Engels and H. Lubbert, FEBS Lett., 1994, 342, 85-90.
# [1] = cited from earlier work
# [2] = cited from earlier work; remark: listed apart in the source
# [3] = maximum fluorescent signal compared with 10 μM 5-HT (defined as 100%)
# [4] = [125I]-DOI, CHO cell line, read-out: Ki(2A)
# [5] = [3H]-5-HT, human receptor, CHO cell line, read-out: Ki(2B)
# [6] = [3H]-5-HT, CHO cell line, read-out: Ki(2C)
Compound,melting point,EC50 (h5-HT2C) [nM],Emax (h5-HT2A receptors; [3]) [%],Emax (h5-HT2C; [3]) [%],other results
C[C@H](N)Cn1c2c(c3ccc(F)cc31)CCC2 (as salt: hydrochloride) (hydrate or solvate) [Example 31],215 °C,–,–,–,–
"(R)-1-(7-Fluoro-1,2,3,4-tetrahydro-6-methoxy-cyclopent[b]indol-4-yl)-2-propylamine, hemifumarate [Example 36]",–,189,–,–,EC50 (h5-HT2A receptors): 1340 nM; h5-HT2A Relative Efficacy (h5-HT2A receptors; [3]): 25%; h5-HT2C Relative Efficacy (h5-HT2C; [3]): 64%
"C[C@H](N)Cn1c2c(c3c(Cl)cccc31)CCC2 (as salt: fumarate) [Example 4, (S)-1-(8-chloro-1,2,3,4-tetrahydrocyclopent[b]indol-4-yl)-2-propylamine]",172 to 173 °C (dec.),–,–,–,–
C[C@H](N)Cn1c2c(c3c(Cl)cc(Cl)cc31)CCC2 (as salt: hydrochloride) (hydrate or solvate) [Example 26],258 °C,–,–,–,–
"C[C@H](N)Cn1c2c(c3c(F)c(F)ccc31)CCC2 [Example 1, (S)-1-(7,8-Difluoro-1,2,3,4-tetrahydrocyclopent[b]indol-4-yl)-2-propylamine fumarate]",–,272,0,77,Ki (5-HT2C receptor): 65 nM; Ki (5-HT2A receptor): 122 nM; Ki (human 5-HT2B receptors): 40 nM
"COc1c(F)ccc2c1c1c(n2C[C@H](C)N)CCC1 [Example 42, (S)-1-(7-fluoro-8-methoxy-1,2,3,4-tetrahydrocyclopent[b]indol-4yl)-2-propylamine]",–,87,51,74,EC50 (h5-HT2A receptors): 805 nM
"COc1ccc2c3c(n(C[C@H](C)N)c2c1)CCC3 [Example 11, (S)-1-(6-methoxy-1,2,3,4-tetrahydrocyclopent[b]indol-4-yl)-2-propylamine]",–,89,25,85,Ki (5-HT2C receptor): 63 nM; Ki (5-HT2A receptor): 314 nM; Ki (human 5-HT2B receptors): 210 nM; EC50 (h5-HT2A receptors): 1690 nM
C[C@H](N)Cn1c2c(c3ccc(F)cc31)CCC2 [Example 31],–,–,–,–,Ki (5-HT2C receptor): 65 nM; Ki (5-HT2A receptor; [4]): 550 nM; Ki (human 5-HT2B receptors; [5]): 161 nM
"C[C@H](N)Cn1c2c(c3ccccc31)CCC2 [Example 14, (S)-1-(1,2,3,4-tetrahydrocyclopent[b]indol-4-yl)-2-propylamine]",–,252,48,80,Ki (5-HT2C receptor): 64 nM; Ki (5-HT2A receptor): 375 nM; Ki (human 5-HT2B receptors): 180 nM; EC50 (h5-HT2A receptors): 6250 nM
C[C@H](N)Cn1c2c(c3c(Cl)cc(Cl)cc31)CCC2 [Example 26],–,–,–,–,Ki (5-HT2C receptor; [6]): 106 nM; Ki (5-HT2A receptor; [4]): 144 nM; Ki (human 5-HT2B receptors; [5]): 127 nM
"C[C@H](N)Cn1c2c(c3c(Cl)c(F)ccc31)CCC2 (as salt: hydrochloride) (hydrate or solvate) [Example 18, (S)-1-(8-chloro-7-fluoro-1,2,3,4-tetrahydrocyclopent[b]indol-4-yl)-2-propylamine]",252 to 253 °C,–,–,–,–
C[C@@H](N)Cn1c2c(c3cccc(Cl)c31)CCC2 [Example 43],299 to 302 °C,–,–,–,Ki (5-HT2C receptor): 62 nM; Ki (5-HT2A receptor; [4]): 167 nM; Ki (human 5-HT2B receptors; [5]): 162 nM
CC(N)Cn1c2c(c3cc(F)c(F)cc31)CCC2 (stereo not shown) [Example 33],–,316,22,81,Ki (5-HT2C receptor): 63 nM; Ki (5-HT2A receptor): 233 nM; Ki (human 5-HT2B receptors): 152 nM
"C[C@H](N)Cn1c2c(c3ccccc31)CCC2 (as salt: hydrochloride) (hydrate or solvate) [Example 14, (S)-1-(1,2,3,4-tetrahydrocyclopent[b]indol-4-yl)-2-propylamine]",233 °C,–,–,–,–
"FC(F)(F)c1cccc(N2CCNCC2)c1 [TFWPP, trifluoromethylphenylpiperazine]",–,–,–,–,food intake in rats [1]: reduce food intake
"C[C@H](N)Cn1c2c(c3cc(F)ccc31)CCC2 (as salt: fumarate) (hydrate or solvate) [Example 2, (S)-1-(7-fluoro-1,2,3,4-tetrahydrocyclopent[b]indol-4-yl)-2-propylamine]",161 to 162 °C,–,–,–,–
CCSc1ccc2c3c(n(C[C@H](C)N)c2c1)CCC3 (as salt: hydrochloride) [Example 27],115 to 119 °C,–,–,–,–
"COc1cc2c(cc1F)c1c(n2C[C@H](C)N)CCC1 (as salt: fumarate) [Example 37, (S)-1-(7-fluoro-6-methoxy-1,2,3,4-tetrahydrocyclopent[b]indol-4-yl)-2-propylamine]",213 °C (dec.),–,–,–,–
"COc1cc2c(cc1F)c1c(n2C[C@H](C)N)CCC1 [Example 37, (S)-1-(7-fluoro-6-methoxy-1,2,3,4-tetrahydrocyclopent[b]indol-4-yl)-2-propylamine]",–,127,28,84,Ki (5-HT2C receptor): 41 nM; Ki (5-HT2A receptor): 86 nM; Ki (human 5-HT2B receptors): 65 nM; EC50 (h5-HT2A receptors): 2990 nM
"C[C@@H](N)Cn1c2c(c3ccccc31)CCC2 [Example 30, (R)-1-(1,2,3,4-tetrahydrocyclopent[b]indol-4-yl)-2-propylamine]",–,90,43,72,Ki (5-HT2C receptor): 19 nM; Ki (5-HT2A receptor): 48 nM; Ki (human 5-HT2B receptors): 31 nM; EC50 (h5-HT2A receptors): 361 nM
"C[C@H](N)Cn1c2c(c3cc(F)ccc31)CCC2 [Example 2, (S)-1-(7-fluoro-1,2,3,4-tetrahydrocyclopent[b]indol-4-yl)-2-propylamine]",–,347,0,85,–
"COc1ccc2c3c(n(C[C@H](C)N)c2c1)CCC3 (as salt: fumarate) [Example 11, (S)-1-(6-methoxy-1,2,3,4-tetrahydrocyclopent[b]indol-4-yl)-2-propylamine]",182 °C,–,–,–,–
C[C@H](N)Cn1c2c(c3cc(F)c(Cl)cc31)CCC2 [Example 16],–,307,0,86,–
CCSc1ccc2c3c(n(C[C@H](C)N)c2c1)CCC3 [Example 27],–,–,–,–,Ki (5-HT2C receptor; [6]): 141 nM; Ki (5-HT2A receptor; [4]): 545 nM; Ki (human 5-HT2B receptors; [5]): 496 nM
"Clc1cccc(N2CCNCC2)c1 [mCPP, m-chlorophenylpiperazine]",–,–,–,–,"food intake in rats [1]: reduce food intake; appetite and body weight of obese subjects ([2]; obese male and female subjects, subchronic treatment for 14 days): decreased the appetite and body weight; food intake in female volunteers ([2]; single injection, female volunteers): decreased food intake"
"C[C@H](N)Cn1c2c(c3c(Cl)cccc31)CCC2 [Example 4, (S)-1-(8-chloro-1,2,3,4-tetrahydrocyclopent[b]indol-4-yl)-2-propylamine]",–,179,60,65,–
"C[C@H](N)Cn1c2c(c3c(Cl)c(F)ccc31)CCC2 [Example 18, (S)-1-(8-chloro-7-fluoro-1,2,3,4-tetrahydrocyclopent[b]indol-4-yl)-2-propylamine]",–,36,63,75,EC50 (h5-HT2A receptors): 2100 nM
"C[C@@H](N)Cn1c2c(c3ccccc31)CCC2 (as salt: hydrochloride) (hydrate or solvate) [Example 30, (R)-1-(1,2,3,4-tetrahydrocyclopent[b]indol-4-yl)-2-propylamine]",225 to 231 °C (dec.),–,–,–,–
